7 molecules from ChEMBL document CHEMBL3259599, “Novel colchicine-site binders with a cyclohexanedione scaffold identified through a ligand-based virtual screening approach” (J Med Chem, 2014) can be followed below.

Data set [1] can be described thus: Antiproliferative activity against BAEC after 3 days by coulter counter analysis. It is filed as functional. The note with it: Bos taurus, 72 h.
The next data set relates to L1210. The data set can be described thus: Antiproliferative activity against mouse L1210 cells after 48 to 96 hrs by coulter counter analysis. It is filed as functional, cell-based.
For data set [2], the system named is MDA-MB-231. As to the kind of experiment: Antiproliferative activity against human MDA-MB-231 cells at 0.08 uM after 17 hrs. It counts as functional, cell-based.
The subject of data set [3] is MDA-MB-231. As to the kind of experiment: Antiinvasive activity against human MDA-MB-231 cells at 0.08 uM after 17 hrs by Transwell assay. It is filed as functional, cell-based.
For data set [4], the system named is MDA-MB-231. The data set can be described thus: Competitive binding affinity to beta-tubulin in human MDA-MB-231 cells assessed as inhibition of protein-N/N'-ethylene-bis(iodoacetamide) adduct formation at 0.5 uM preincubated for 16 hrs followed by N/N'-ethylene-bis(iodoacetamide) formation measured after 1.5 hrs by Western blot analysis. It counts as cell-based. For orientation: In western blotting, separated proteins are transferred to a membrane and probed.

The subject of data set [5] is HMEC-1. As to the kind of experiment: Antivascular activity in HMEC1 cells assessed as destruction of cord like structure at 0.3 to 1 uM after 90 mins by matrigel assay. It counts as functional, cell-based. Conditions: Homo sapiens.
Data set [6] can be described thus: Antiproliferative activity against MBEC after 3 days by coulter counter analysis. It counts as functional, Mus musculus.
In data set [7] the test system is MDA-MB-231. The data set can be described thus: Antimigratory activity against human MDA-MB-231 cells at 0.08 uM after 17 hrs by Transwell assay. It counts as functional, cell-based.
Data set [8] is described as follows: Cell cycle arrest in HMEC1 cells assessed as accumulation at subG1 phase at 0.03 uM after 24 hrs by propidium iodide staining-based flow cytometric analysis. It counts as functional. The note with it: Homo sapiens, HMEC-1. Background: In flow cytometry, cells or beads pass a laser one at a time.
Data set [9] in a line: Cell cycle arrest in HMEC1 cells assessed as accumulation at G2/M phase at 0.03 uM after 24 hrs by propidium iodide staining-based flow cytometric analysis. It is filed as functional. Conditions: Homo sapiens, HMEC-1.
Data set [10] in a line: Antiproliferative activity against HMEC1 after 4 days by coulter counter analysis. It counts as functional. The note with it: Homo sapiens, HMEC-1, 96 h.
Data set [11] in a line: Cell cycle arrest in HMEC1 cells assessed as accumulation at subG1 phase at 1 uM after 24 hrs by propidium iodide staining-based flow cytometric analysis. It counts as functional. Conditions: Homo sapiens, HMEC-1.
For a further data set, the system named is CCRF-CEM. As to the kind of experiment: Antiproliferative activity against human CEM cells after 48 to 96 hrs by coulter counter analysis. It counts as functional, cell-based.
The test system of a further data set is HeLa. As to the kind of experiment: Antiproliferative activity against human HeLa cells after 4 days by coulter counter analysis. The note with it: 96 h. It is filed as functional, cell-based.
Data set [12] is described as follows: Cell cycle arrest in HMEC1 cells assessed as accumulation at G2/M phase at 1 uM after 24 hrs by propidium iodide staining-based flow cytometric analysis. It is filed as functional. Conditions: Homo sapiens, HMEC-1.
The species entered for the next data set is Rattus norvegicus. As to the kind of experiment: Binding affinity to rat brain tubulin at 37 degC after 1 to 2 mins by DEAE cellulose filter paper method.
For data set [13], the target named is T1, Tubulin (Homo sapiens) (UniProt P68371+Q9H4B7+P0DPH7+P68366+Q13509+Q71U36+P04350+Q3ZCM7+P07437+P68363+Q9BQE3+Q6PEY2+Q13885+Q9BVA1+Q9BUF5).
Description: Binding affinity to tubulin (unknown origin)
Data set [14] addresses T2, Tubulin (Bos taurus) (UniProt Q6B856+Q862L2+Q862F3). As to the kind of experiment: Displacement of MTC from calf brain tubulin colchicine binding site at 20 uM by fluorescence spectroscopic analysis.
The target in data set [15] is T2, Tubulin (Bos taurus). The data set can be described thus: Displacement of R-PT from calf brain tubulin at 25 degC by fluorescence spectroscopic analysis.
The subject of the next data set is Liver. The data set can be described thus: (§1) Metabolic stability in 50% mouse liver extract assessed as compound remaining at 100 uM measured after 3 hrs by HPLC analysis. It is filed as ADME, tissue-based. Conditions: 3 h, 100 µM.
For data set [16], the system named is MDA-MB-231. As to the kind of experiment: Antimigratory activity against human MDA-MB-231 cells at 2 to 10 uM after 17 hrs by Transwell assay. It is filed as functional, cell-based.
The test system of data set [17] is MDA-MB-231. The data set can be described thus: Antiinvasive activity against human MDA-MB-231 cells at 2 to 10 uM after 17 hrs by Transwell assay. It is filed as functional, cell-based.
The next data set deals with Serum. The data set can be described thus: (§2) Metabolic stability in 10% human serum assessed as compound remaining at 100 uM measured after 3 hrs by HPLC analysis. It counts as ADME. Conditions: serum, 3 h, 100 µM.
A short description of data set [18]: as §1. It counts as ADME, tissue-based. The note with it: 50% mouse liver extract, read-out: Stability.
Data set [19] addresses T1, Tubulin (Homo sapiens). The data set can be described thus: Binding affinity to tubulin in human MDA-MB-231 cells assessed as inhibition of mitotic spindle formation at 1 uM after 8 hrs by DAPI staining-based fluorescence microscopic analysis. It counts as cell-based.
Data set [20] has as its system HMEC-1. As to the kind of experiment: Induction of apoptosis in HMEC1 at 0.3 uM after 24 hrs by propidium iodide staining-based flow cytometric analysis. It counts as functional. Conditions: Homo sapiens.
For data set [21], the system named is MDA-MB-231. As to the kind of experiment: Antiproliferative activity against human MDA-MB-231 cells at 0.4 uM after 17 hrs. It counts as functional, cell-based.
Data set [22] has as its system MDA-MB-231. The data set can be described thus: Antimigratory activity against human MDA-MB-231 cells at 0.4 uM after 17 hrs by Transwell assay. It counts as functional, cell-based.
The subject of data set [23] is MDA-MB-231. As to the kind of experiment: Competitive binding affinity to beta-tubulin in human MDA-MB-231 cells assessed as inhibition of protein-N/N'-ethylene-bis(iodoacetamide) adduct formation at 10 uM preincubated for 16 hrs followed by N/N'-ethylene-bis(iodoacetamide) formation measured after 1.5 hrs by Western blot analysis. It counts as cell-based.
For data set [24], the system named is HMEC-1. The data set can be described thus: Antivascular activity in HMEC1 cells assessed as destruction of cord like structure at 3 uM after 90 mins by matrigel assay. The note with it: Homo sapiens. It counts as functional, cell-based.
The test system of data set [25] is MDA-MB-231. The data set can be described thus: Antiinvasive activity against human MDA-MB-231 cells at 0.4 uM after 17 hrs by Transwell assay. It is filed as functional, cell-based.
Data set [26] can be described thus: as §2. It is filed as ADME. The note with it: 10% human serum, read-out: Stability.

The structures appear in SMILES notation. Activity calls are given as the source filed them. No cut-off for these calls is given here.

As usually defined, the IC50 is the midpoint of a concentration-inhibition curve. Turning to `COc1cc2c(c(OC)c1OC)-c1ccc(OC)c(=O)cc1[C@@H](NC(C)=O)CC2` [COLCHICINE], the IC50 in data set [1] turned out to be 6.9 nM; in the data set with L1210, 10 nM; in data set [6] it was 31 nM. The outcome (in the data set with MDA-MB-231 [2]; in the data set on HMEC-1 [5]; in data set [8]; in data set [9]) was Active. Also, the inhibition result in the data set with MDA-MB-231 [3], in the data set on MDA-MB-231 [4] and in the data set with MDA-MB-231 [7] was “Active” each time.
Regarding `CC(Nc1ccccc1C)=C1C(=O)CC(c2ccccc2)CC1=O` (stereo not drawn), the IC50 in data set [1] is 170 nM; in data set [10], 260 nM; with L1210, 300 nM; in the data set on CCRF-CEM, 680 nM; in the data set on HeLa, 480 nM; in data set [6], 320 nM. Also, the result in data set [11] and in [12] was Active.
On to `COc1cc([C@@H]2c3cc4c(cc3[C@H](O)[C@H]3COC(=O)[C@H]23)OCO4)cc(OC)c1OC`, for which the Ka in the data set filed under Rattus norvegicus is 1.8 ×10⁶ /M.
As for `COC(=O)Nc1nc2cc(C(=O)c3cccs3)ccc2[nH]1`, on Tubulin (Homo sapiens) [13], the Ka came to 4 ×10⁵ /M.
Take `CCC(Nc1ccccc1OC)=C1C(=O)CC(c2ccccc2)CC1=O` (stereo not drawn): the IC50 was 1200 nM in [1]; 1400 nM in [10]; 1500 nM in the data set on L1210; 2300 nM in the data set on CCRF-CEM; 4300 nM in the data set on HeLa; 1400 nM in data set [6]. The inhibition entry on Tubulin (Bos taurus) [14] is “Active”. Also, the Ka on Tubulin (Bos taurus) [15] came out at 7.1 ×10⁶ /M.
Turning to `CCC(Nc1ccccc1O)=C1C(=O)CC(c2ccccc2)CC1=O` (stereo not drawn), the IC50 in [1] turned out to be 35000 nM; in data set [10], 22000 nM; in the data set with L1210 it was 13000 nM; in the data set on CCRF-CEM, 15000 nM; with HeLa, 11000 nM; in [6], 13000 nM. The Stability result in the data set with Liver and in the data set with Serum was “Unstable” in each case. Also, the inhibition result with MDA-MB-231 [16] and with MDA-MB-231 [17] was “inactive” throughout. On Tubulin (Bos taurus) [14], the inhibition entry was “Active”.
In the case of `COc1ccccc1NC(C)=C1C(=O)CC(c2ccccc2)CC1=O` (stereo not drawn), the IC50 in data set [1] came out at 90 nM; in data set [10], 90 nM; in the data set on L1210 it was 160 nM; in the data set on CCRF-CEM, 180 nM; in the data set on HeLa, 180 nM; in data set [6] it was 120 nM. The remaining at 3 h, 100 µM in data set [18] is over 90%; in data set [26] it was 70%. The inhibition result at Tubulin (Homo sapiens) [19], in the data set with MDA-MB-231 [22], at Tubulin (Bos taurus) [14], in the data set on MDA-MB-231 [23] and with MDA-MB-231 [25] was “Active” in each case. In addition, the result (in the data set on HMEC-1 [20]; with MDA-MB-231 [21]; in data set [11]; in the data set with HMEC-1 [24]; in data set [12]) was Active. On Tubulin (Bos taurus) [15], this molecule displayed a Ka of 9.6 ×10⁶ /M.
